Reference: patent US20240327364A1, “THERAPEUTIC TARGETING OF GPR68 TO INDUCE FERROPTOSIS” (University Of Maryland, Baltimore, priority 2023, published 2024)

Legend:
[1] = biological target: T1, ABL1(H396P)-nonphosphorylated (Homo sapiens, UniProt P00519, H396P); experiment: KinomeScan; format: binding; settings: read-out: % Control
T1 construct: purchased DiscoveRx

MLK2 = biological target: T2, MLK2 (Homo sapiens, UniProt Q02779); experiment: KinomeScan; format: binding; settings: read-out: % Control
T2 construct: purchased DiscoveRx

PIK3CA(H1047L) = biological target: T3, PIK3CA(H1047L) (Homo sapiens, UniProt P42336, H1047L); experiment: KinomeScan; format: binding; settings: read-out: % Control
T3 construct: purchased DiscoveRx (Fremont, CA)

CGRP1 = biological target: T4, CGRP1 (Homo sapiens, UniProt O60894+Q16602); experiment: GPCR Profiler; format: cell-based
T4 construct: host or cells: Chem-1 cells with Gα15

ADRA1A = biological target: T5, ADRA1A (Homo sapiens, UniProt P35348); experiment: GPCR Profiler; format: cell-based
T5 construct: host or cells: Chem-1 cells with promiscuous Gα15

BMX = biological target: T6, BMX (Homo sapiens, UniProt P51813); experiment: KinomeScan; format: binding; settings: read-out: % Control
T6 construct: purchased DiscoveRx (Fremont, CA)

EGFR(S752-1759del) = biological target: T7, EGFR(S752-1759del) (Homo sapiens, UniProt P00533, DEL752-759); experiment: KinomeScan; format: binding; settings: read-out: % Control
T7 construct: purchased DiscoveRx (Fremont, CA)

MYLK4 = biological target: T8, MYLK4 (Homo sapiens, UniProt Q86YV6); experiment: KinomeScan; format: binding; settings: read-out: % Control
T8 construct: purchased DiscoveRx

GPR54 = biological target: T9, GPR54 (Homo sapiens, UniProt Q969F8); experiment: GPCR Profiler; format: cell-based
T9 construct: host or cells: Chem-1 cells with promiscuous Gα15

MAP3K2 = biological target: T10, MAP3K2 (Homo sapiens, UniProt Q9Y2U5); experiment: KinomeScan; format: binding; settings: read-out: % Control
T10 construct: purchased DiscoveRx (Fremont, CA)

M5 = biological target: T11, M5 (Homo sapiens, UniProt P08912); experiment: GPCR Profiler; format: cell-based
T11 construct: host or cells: Chem-1 cells with promiscuous Gα15

TSH = biological target: T12, TSH (Homo sapiens, UniProt P16473); experiment: GPCR Profiler; format: cell-based
T12 construct: host or cells: Chem-1 cells with Gα15

CCR2B = biological target: T13, CCR2B (Homo sapiens, UniProt P41597); experiment: GPCR Profiler; format: cell-based
T13 construct: host or cells: Chem-1 cells with Gα15

5-HT2A = biological target: T14, 5-HT2A (Homo sapiens, UniProt P28223); experiment: GPCR Profiler; format: cell-based
T14 construct: host or cells: Chem-1 cells with promiscuous Gα15
Description: (§1) GPCR profiling assays were performed by Millipore (St. Louis, MO) using in cells expressing Gα15, a promiscuous G protein that enhances GPCR coupling to downstream Ca2+ signaling pathways. KinomeScan was conducted by DiscoveRx (Fremont, CA).
(§2) To identify the target of OGM1, the molecule was profiled for binding in a panel of 442 kinases (KinomeScan™, DiscoveRx™) and assessed its activity against 158 GPCRs in a single-point assay in Chem-1 cells that uses a promiscuous Gα15 protein to trigger calcium flux (see Table 9 and Table 10, below). […] Table 9. KinomeScan (DiscoverRx) profiling of OGM1.

PRP = biological target: T15, PRP (Homo sapiens, UniProt P49683); experiment: GPCR Profiler; format: cell-based
T15 construct: host or cells: Chem-1 cells with Gα15
Description: as §1, §2

WM-115 = experiment: Cell Titer-Glo viability, Melanoma; format: cell-based
Description: OGM2 kills wide variety of cancer cell types. Cell sensitivity can be classified in to Very Sensitive (LC50<2 μM), Sensitive (LC50=2 to 10 μM), Mildly Sensitive (LC50>10 μM), and Refractory (no killing at 10 μM). The listed established cell were incubated with OGM2 at 2 μM or 10 μM for 72 hours under standard cell culture conditions, and relative cell number was assessed using Cell Titer-Glo Luminescent Cell Viability Assay (Promega™) following the manufacturer's instructions. Luminescence was determined using a Cytation 5 reader and Gen5 software package (BioTek™).
Cancer cells, which are very sensitive to killing by OGM2 (LCs <2 μM), with reported mRNA expression of GPR68 and the related proton sensing receptor GPR4. LC50's (concentrations causing 50% lethality) were determined using CellTiter-Glo (Promega™, G7570). Cells were plated in 12-well plates (CELLTREAT Scientific Products, 229112) in 1 ml of DMEM with high glucose, GlutaMAX, HEPES, or RPMI 1640 with Penicillin-Streptomycin (ThermoFisher™, 10564029, 11875119 and 15140122) and 10% FBS. Cells were incubated overnight at 37° C. in 5% CO2. Then 1 mL of fresh media was added with DMSO, OGM, or positive control (Erastin; APExBIO Technology, LLC, B1524) and cells incubated for 3 days. On the third day, all media was removed, cells were rinsed with 1×PBS, PBS was removed, and 200 μL of 1× Passive Lysis Buffer (Promega™, E1941) was added to each well. […]. Subsequently, 20 μL of lysate was added to 100 μL CellTiter-Glo™ reagent on a LUMITRAC 200 plate (Greiner™ bio-one, 82050-726). Plates were briefly spun down and read on a GloMax-Multi Detection System (Promega™).
The cells listed in the tables above were incubated with OGM2 at 2 μM or 10 μM for 72 hours under standard cell culture conditions, and relative cell number was assessed using Cell Titer-Glo Luminescent Cell Viability Assay (Promega™) following the manufacturer's instructions. Luminescence was determined using a Cytation 5 reader and Gen5 software package (BioTek™). RNA expression of GPR68 and GPR4 in the corresponding cancer cell lines are listed, according to the publicly available The Human Protein Atlas version 22.0 and Ensembl version 103.38 (see proteinatlas.org). The consensus normalized expression value (“nTPM”=normalize transcript per million) was calculated as the maximum nTPM value for each gene in the two data sources.

GPR68 = GPR68 (Homo sapiens, UniProt Q15743); experiment: Acid-induced calcium response, GPR68-transfected HEK293 cells; format: cell-based
U87 = experiment: Clonogenicity (crystal violet); format: cell-based, human; settings: 12 days
Description: U87 cells were plated at 400 cells per well in a 6-well plate and on the next day were treated with increasing concentrations of OGM2 for 12 days. The doses were 0 uM (DMSO control) 0.1 μM 0.5 uM, 1 uM, 1.5 uM and 2 uM, as labelled. The plate was fixed with formalin and stained with crystal violet.

T12 sequence (P16473 21-764): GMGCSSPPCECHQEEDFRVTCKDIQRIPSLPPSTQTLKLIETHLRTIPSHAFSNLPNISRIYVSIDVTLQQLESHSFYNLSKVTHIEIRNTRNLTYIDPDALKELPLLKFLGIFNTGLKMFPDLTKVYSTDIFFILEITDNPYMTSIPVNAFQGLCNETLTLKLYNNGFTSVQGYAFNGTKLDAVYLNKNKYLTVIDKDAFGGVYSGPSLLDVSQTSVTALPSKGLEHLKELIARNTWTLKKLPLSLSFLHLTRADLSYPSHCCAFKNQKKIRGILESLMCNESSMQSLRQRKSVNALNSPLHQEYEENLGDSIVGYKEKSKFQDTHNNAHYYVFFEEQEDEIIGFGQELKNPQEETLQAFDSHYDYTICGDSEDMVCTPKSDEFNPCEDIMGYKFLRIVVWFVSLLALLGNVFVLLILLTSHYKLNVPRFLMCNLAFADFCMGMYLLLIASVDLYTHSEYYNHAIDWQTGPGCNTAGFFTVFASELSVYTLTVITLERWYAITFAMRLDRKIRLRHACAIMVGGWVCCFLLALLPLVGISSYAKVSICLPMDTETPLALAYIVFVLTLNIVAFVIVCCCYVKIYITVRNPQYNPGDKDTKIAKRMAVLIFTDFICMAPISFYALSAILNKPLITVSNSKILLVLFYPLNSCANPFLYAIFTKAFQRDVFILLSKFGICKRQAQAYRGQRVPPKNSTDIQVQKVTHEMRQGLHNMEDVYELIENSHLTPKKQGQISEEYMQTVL
T14 sequence (P28223 whole entry): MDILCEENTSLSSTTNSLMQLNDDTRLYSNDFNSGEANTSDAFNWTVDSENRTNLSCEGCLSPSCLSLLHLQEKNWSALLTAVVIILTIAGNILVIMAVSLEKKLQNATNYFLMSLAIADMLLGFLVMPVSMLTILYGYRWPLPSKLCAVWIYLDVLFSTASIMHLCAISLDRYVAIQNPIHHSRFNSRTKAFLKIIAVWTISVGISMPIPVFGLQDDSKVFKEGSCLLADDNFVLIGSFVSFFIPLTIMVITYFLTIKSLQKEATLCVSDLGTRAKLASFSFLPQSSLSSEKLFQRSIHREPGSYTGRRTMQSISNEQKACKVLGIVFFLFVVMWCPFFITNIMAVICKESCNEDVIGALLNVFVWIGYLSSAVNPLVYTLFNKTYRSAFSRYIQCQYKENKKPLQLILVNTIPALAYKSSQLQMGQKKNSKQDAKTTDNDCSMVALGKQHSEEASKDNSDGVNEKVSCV
T4 sequence (Q16602 23-461): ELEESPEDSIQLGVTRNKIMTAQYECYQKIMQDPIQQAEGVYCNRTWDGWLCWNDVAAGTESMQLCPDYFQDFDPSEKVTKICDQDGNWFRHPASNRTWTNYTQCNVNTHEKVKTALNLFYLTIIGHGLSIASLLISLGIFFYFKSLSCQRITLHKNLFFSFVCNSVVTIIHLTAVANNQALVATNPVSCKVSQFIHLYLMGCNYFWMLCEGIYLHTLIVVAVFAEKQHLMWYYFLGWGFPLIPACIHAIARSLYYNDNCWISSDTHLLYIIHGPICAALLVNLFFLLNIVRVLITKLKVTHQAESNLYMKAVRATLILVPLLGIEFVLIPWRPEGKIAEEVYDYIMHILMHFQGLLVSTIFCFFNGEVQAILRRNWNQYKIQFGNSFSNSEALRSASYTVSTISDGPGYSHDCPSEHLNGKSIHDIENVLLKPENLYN
T4 sequence (O60894 27-148 partner): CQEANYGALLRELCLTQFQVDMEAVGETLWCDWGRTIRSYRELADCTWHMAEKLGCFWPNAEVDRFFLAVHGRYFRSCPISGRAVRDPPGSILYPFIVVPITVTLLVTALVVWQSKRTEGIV
T5 sequence (P35348 whole entry): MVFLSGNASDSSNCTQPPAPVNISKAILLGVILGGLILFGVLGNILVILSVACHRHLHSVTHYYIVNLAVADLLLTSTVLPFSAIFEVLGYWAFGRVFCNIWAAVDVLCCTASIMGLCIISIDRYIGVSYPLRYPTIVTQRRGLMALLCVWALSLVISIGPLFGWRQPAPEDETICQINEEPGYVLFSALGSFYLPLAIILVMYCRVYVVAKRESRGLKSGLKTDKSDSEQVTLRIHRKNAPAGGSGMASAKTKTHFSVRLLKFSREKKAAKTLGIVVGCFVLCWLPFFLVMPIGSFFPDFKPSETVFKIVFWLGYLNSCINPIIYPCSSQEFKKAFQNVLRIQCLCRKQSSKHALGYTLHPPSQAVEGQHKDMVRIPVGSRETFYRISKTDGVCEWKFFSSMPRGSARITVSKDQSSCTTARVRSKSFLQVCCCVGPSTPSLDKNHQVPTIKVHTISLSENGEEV
T11 sequence (P08912 whole entry): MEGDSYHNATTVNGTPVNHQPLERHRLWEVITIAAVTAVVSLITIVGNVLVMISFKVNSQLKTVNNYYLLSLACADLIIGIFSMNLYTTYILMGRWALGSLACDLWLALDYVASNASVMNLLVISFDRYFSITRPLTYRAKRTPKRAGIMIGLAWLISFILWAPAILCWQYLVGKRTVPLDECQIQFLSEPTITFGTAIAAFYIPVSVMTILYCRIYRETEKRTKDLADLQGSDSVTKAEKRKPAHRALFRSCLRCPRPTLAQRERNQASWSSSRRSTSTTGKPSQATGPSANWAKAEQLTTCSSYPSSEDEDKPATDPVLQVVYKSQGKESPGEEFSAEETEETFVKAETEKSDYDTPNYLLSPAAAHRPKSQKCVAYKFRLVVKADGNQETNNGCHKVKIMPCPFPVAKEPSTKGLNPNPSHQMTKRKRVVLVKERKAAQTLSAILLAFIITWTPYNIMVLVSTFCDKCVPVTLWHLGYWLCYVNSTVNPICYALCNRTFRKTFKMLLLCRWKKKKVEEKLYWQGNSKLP
T15 sequence (P49683 whole entry): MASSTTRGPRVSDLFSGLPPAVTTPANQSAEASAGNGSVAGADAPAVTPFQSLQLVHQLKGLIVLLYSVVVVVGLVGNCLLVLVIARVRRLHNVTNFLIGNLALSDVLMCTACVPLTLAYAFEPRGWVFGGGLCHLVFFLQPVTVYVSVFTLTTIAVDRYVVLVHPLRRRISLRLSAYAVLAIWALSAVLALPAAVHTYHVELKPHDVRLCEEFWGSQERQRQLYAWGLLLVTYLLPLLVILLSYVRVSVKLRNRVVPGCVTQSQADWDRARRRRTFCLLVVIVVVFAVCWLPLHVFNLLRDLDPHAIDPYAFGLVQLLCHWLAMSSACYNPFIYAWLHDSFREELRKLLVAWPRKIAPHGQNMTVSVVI
T13 sequence (P41597 1-360 isoform P41597-2): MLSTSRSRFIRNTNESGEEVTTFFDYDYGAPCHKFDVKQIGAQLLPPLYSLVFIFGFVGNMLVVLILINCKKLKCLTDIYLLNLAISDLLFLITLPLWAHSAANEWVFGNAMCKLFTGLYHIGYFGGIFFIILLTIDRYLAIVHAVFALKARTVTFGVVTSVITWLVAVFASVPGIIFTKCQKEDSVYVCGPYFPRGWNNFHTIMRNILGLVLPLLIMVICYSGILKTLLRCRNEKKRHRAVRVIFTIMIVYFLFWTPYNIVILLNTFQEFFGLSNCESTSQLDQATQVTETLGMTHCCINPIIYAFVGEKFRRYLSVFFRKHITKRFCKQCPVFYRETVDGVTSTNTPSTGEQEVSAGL
T9 sequence (Q969F8 whole entry, species assumed): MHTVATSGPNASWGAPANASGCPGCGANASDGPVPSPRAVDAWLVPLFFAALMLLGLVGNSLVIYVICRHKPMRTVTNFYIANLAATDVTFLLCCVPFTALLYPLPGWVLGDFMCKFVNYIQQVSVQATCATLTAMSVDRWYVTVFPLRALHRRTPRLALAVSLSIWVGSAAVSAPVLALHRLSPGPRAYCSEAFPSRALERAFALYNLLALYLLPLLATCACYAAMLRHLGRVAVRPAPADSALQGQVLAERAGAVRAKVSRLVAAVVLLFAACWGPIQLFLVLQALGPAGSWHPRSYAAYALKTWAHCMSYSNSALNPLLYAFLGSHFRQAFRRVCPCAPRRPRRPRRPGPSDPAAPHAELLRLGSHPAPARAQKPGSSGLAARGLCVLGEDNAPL
T7 sequence (P00533 with tags, fused parts or gaps DEL752-759 limits assumed): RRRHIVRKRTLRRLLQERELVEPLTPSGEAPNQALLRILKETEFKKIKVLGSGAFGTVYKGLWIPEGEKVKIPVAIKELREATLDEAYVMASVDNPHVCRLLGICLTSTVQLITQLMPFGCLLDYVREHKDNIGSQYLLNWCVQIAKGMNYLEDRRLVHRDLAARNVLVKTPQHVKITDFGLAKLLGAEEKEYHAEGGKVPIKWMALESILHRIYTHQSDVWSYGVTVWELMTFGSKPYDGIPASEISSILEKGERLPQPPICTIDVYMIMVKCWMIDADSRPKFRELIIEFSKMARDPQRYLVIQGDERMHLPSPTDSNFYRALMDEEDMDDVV
T8 sequence (Q86YV6 whole entry): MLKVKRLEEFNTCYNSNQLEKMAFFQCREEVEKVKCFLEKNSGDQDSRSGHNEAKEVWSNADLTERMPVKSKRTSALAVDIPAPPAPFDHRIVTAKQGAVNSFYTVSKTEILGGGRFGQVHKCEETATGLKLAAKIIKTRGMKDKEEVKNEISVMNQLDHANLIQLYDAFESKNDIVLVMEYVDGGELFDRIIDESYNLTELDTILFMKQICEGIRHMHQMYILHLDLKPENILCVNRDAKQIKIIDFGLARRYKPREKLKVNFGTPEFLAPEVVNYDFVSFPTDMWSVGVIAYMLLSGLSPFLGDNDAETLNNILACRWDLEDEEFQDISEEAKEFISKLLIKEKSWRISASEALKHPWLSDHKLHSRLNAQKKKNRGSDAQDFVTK

## CCc1ccc2c(c1)C1(NN=C(c3cccc4ccccc34)S1)C(=O)N2 (centres unmarked) [OGM1, 5-ethyl-5′-naphthalen-1-ylspiro[1H-indole-3,2′-3H-1,3,4-thiadiazole]-2-one]
[1]
  remaining binding at 10 µM: 88%
MLK2
  remaining binding at 10 µM: 100%
PIK3CA(H1047L)
  remaining binding at 10 µM: 100%
CGRP1; 10 uM
  Antagonism: −2.3
CGRP1; 12.5 uM
  Agonism: 0.5
ADRA1A; 10 uM
  Antagonism: 3
ADRA1A; 12.5 uM
  Agonism: 1.9
BMX
  remaining binding at 10 µM: 100%
EGFR(S752-1759del)
  remaining binding at 10 µM: 91%
MYLK4
  remaining binding at 10 µM: 98%
GPR54; 10 uM
  Antagonism: −5.8
GPR54; 12.5 uM
  Agonism: −0.6
MAP3K2
  remaining binding at 10 µM: 92%
M5; 10 uM
  Antagonism: 3.4
M5; 12.5 uM
  Agonism: −0.6
TSH; 10 uM
  Antagonism: 5.9
TSH; 12.5 uM
  Agonism: −0.1
CCR2B; 10 uM
  Antagonism: 0.7
CCR2B; 12.5 uM
  Agonism: 0.7
5-HT2A; 10 uM
  Antagonism: −12.3
5-HT2A; 12.5 uM
  Agonism: 1.2
PRP; 10 uM
  Antagonism: −11.1
PRP; 12.5 uM
  Agonism: −0.3

## CCc1ccc2c(c1)C1(NN=C(c3ccccc3)S1)C(=O)N2 (centres unmarked) [OGM2]
WM-115
  Class: Sensitive (Sensitive (LC50=2 to 10 μM))
WM-115; 72 hours
  % Survival 2 μM OGM: 92.9%
  % Survival 10 μM OGM: 40.7%
WM-115; Homo sapiens, WM-115, 72 hours, read-out: LC50 (the source's name)
  CC50: 2 to 10 µM
GPR68
  calcium response to extracellular acidification: inhibited
U87
  clonogenicity: reduces clonogenicity of U87 glioblastoma cells
